# Calls of active or inactive are those of the source. No cut-off for these calls is given here.
# Key:
# [1] = target: Sodium-dependent dopamine transporter (Homo sapiens) (UniProt Q01959)
# Description: Inhibition of DAT PDSP analysis
# Mus musculus [2] = experiment: CNS toxicity in Albino mouse assessed as anesthetic response at 0.2 ml/10 g by hippocratic screen; format: organism-based; details: in vivo
# Mus musculus [3] = species: Mus musculus; experiment: CNS toxicity in Albino mouse assessed as loss of analgesic activity at 0.2 ml/10 g by hippocratic screen; format: organism-based; details: in vivo
# Mus musculus [4] = species: Mus musculus; experiment: CNS toxicity in Albino mouse assessed as ataxia at 0.2 ml/10 g by hippocratic screen; format: organism-based; details: in vivo
# Mus musculus [5] = species: Mus musculus; experiment: CNS toxicity in Albino mouse assessed as paralysis at 0.2 ml/10 g by hippocratic screen; format: organism-based; details: in vivo
# Mus musculus [6] = species: Mus musculus; experiment: Effect on behavioral activity in Albino mouse assessed as inhibition of diazepam-induced pinnal reflex at 0.2 ml/10 g by hippocratic screen; format: functional, organism-based
# Mus musculus [7] = species: Mus musculus; experiment: Effect on behavioral activity in Albino mouse assessed as inhibition of diazepam-induced paralysis at 0.2 ml/10 g by hippocratic screen; format: functional, organism-based
# Mus musculus [8] = species: Mus musculus; experiment: CNS toxicity in Albino mouse assessed as change in respiratory rate at 0.2 ml/10 g by hippocratic screen; format: organism-based; details: in vivo
# Mus musculus [9] = species: Mus musculus; experiment: Effect on behavioral activity in Albino mouse assessed as inhibition of diazepam-induced startle reaction at 0.2 ml/10 g by hippocratic screen; format: functional, organism-based
# Mus musculus [10] = species: Mus musculus; experiment: Effect on behavioral activity in Albino mouse assessed as inhibition of diazepam-induced tremors at 0.2 ml/10 g by hippocratic screen; format: functional, organism-based
# Mus musculus [11] = species: Mus musculus; experiment: Effect on behavioral activity in Albino mouse assessed as inhibition of diazepam-induced anesthesia at 0.2 ml/10 g by hippocratic screen; format: functional, organism-based
# Mus musculus [12] = species: Mus musculus; experiment: Effect on behavioral activity in Albino mouse assessed as inhibition of diazepam-induced decrease in respiratory rate at 0.2 ml/10 g by hippocratic screen; format: functional, organism-based
# Mus musculus [13] = species: Mus musculus; experiment: Effect on behavioral activity in Albino mouse assessed as inhibition of diazepam-induced loss of analgesia at 0.2 ml/10 g by hippocratic screen; format: functional, organism-based
# Mus musculus [14] = species: Mus musculus; experiment: CNS toxicity in Albino mouse assessed as loss of righting reflex at 0.2 ml/10 g by hippocratic screen; format: organism-based; details: in vivo
# Mus musculus [15] = species: Mus musculus; experiment: CNS toxicity in Albino mouse assessed as startle reaction at 0.2 ml/10 g by hippocratic screen; format: organism-based; details: in vivo
# Mus musculus [16] = species: Mus musculus; experiment: CNS toxicity in Albino mouse assessed as pinnal reflex at 0.2 ml/10 g by hippocratic screen; format: organism-based; details: in vivo
# Mus musculus [17] = species: Mus musculus; experiment: CNS toxicity in Albino mouse assessed as tremors at 0.2 ml/10 g by hippocratic screen; format: organism-based; details: in vivo
# Mus musculus [18] = species: Mus musculus; experiment: Effect on behavioral activity in Albino mouse assessed as inhibition of diazepam-induced loss of screen grip at 0.2 ml/10 g by hippocratic screen; format: functional, organism-based
# Mus musculus [19] = species: Mus musculus; experiment: CNS toxicity in Albino mouse assessed as loss of screen grip at 0.2 ml/10 g by hippocratic screen; format: organism-based; details: in vivo
# Mus musculus [20] = species: Mus musculus; experiment: Effect on behavioral activity in Albino mouse assessed as inhibition of diazepam-induced loss of righting reflex at 0.2 ml/10 g after 2 hrs by hippocratic screen; format: functional, organism-based
# Mus musculus [21] = species: Mus musculus; experiment: Effect on behavioral activity in Albino mouse assessed as inhibition of diazepam-induced ataxia at 0.2 ml/10 g for 15 mins by hippocratic screen; format: functional, organism-based
# Mus musculus [22] = species: Mus musculus; experiment: Effect on behavioral activity in Albino mouse assessed as inhibition of diazepam-induced decrease in motor activity at 0.2 ml/10 g for 2 hrs by hippocratic screen; format: functional, organism-based
# Mus musculus [23] = species: Mus musculus; experiment: CNS toxicity in Albino mouse assessed as decrease in motor activity at 0.2 ml/10 g by hippocratic screen; format: organism-based; details: in vivo
# Mus musculus [24] = species: Mus musculus; experiment: Effect on behavioral activity in Albino mouse assessed as inhibition of diazepam-induced ataxia at 0.2 ml/10 g after 5 mins by hippocratic screen; format: functional, organism-based
# Mus musculus [25] = species: Mus musculus; experiment: Effect on behavioral activity in Albino mouse assessed as inhibition of diazepam-induced decrease in motor activity at 0.2 ml/10 g for 10 to 15 mins by hippocratic screen; format: functional, organism-based
# Mus musculus [26] = species: Mus musculus; experiment: Effect on behavioral activity in Albino mouse assessed as inhibition of diazepam-induced loss of righting reflex at 0.2 ml/10 g after 1 hr by hippocratic screen; format: functional, organism-based
# Sodium-dependent dopamine transporter (Homo sapiens), sequence (Q01959 whole entry): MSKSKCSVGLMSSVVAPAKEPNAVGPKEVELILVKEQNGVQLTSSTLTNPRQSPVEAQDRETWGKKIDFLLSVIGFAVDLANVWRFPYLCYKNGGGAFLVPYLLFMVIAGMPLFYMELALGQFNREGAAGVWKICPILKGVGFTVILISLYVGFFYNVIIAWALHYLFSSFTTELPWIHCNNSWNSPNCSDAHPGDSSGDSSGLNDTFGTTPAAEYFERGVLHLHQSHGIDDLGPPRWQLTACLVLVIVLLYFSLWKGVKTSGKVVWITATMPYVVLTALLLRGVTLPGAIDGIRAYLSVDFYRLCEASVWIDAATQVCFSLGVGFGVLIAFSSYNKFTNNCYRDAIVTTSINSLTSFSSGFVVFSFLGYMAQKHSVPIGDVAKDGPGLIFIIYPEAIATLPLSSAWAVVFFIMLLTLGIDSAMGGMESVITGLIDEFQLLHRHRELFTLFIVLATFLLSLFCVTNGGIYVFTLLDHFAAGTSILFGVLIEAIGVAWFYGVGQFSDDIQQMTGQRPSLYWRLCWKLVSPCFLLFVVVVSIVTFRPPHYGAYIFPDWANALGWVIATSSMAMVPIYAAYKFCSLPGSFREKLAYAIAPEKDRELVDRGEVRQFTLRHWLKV
SMILES,Activity (Mus musculus [2]),Activity (Mus musculus [3]),Activity (Mus musculus [4]),Activity (Mus musculus [5]),Activity (Mus musculus [6]),Activity (Mus musculus [7]),Activity (Mus musculus [8]),Activity (Mus musculus [9]),Activity (Mus musculus [10]),Activity (Mus musculus [11]),Activity (Mus musculus [12]),Activity (Mus musculus [13]),Activity (Mus musculus [14]),Activity (Mus musculus [15]),Activity (Mus musculus [16]),Activity (Mus musculus [17]),Activity (Mus musculus [18]),Activity (Mus musculus [19]),Activity (Mus musculus [20]),Activity (Mus musculus [23]),further results
NCCc1ccc(O)c(O)c1,–,–,–,–,–,–,–,–,–,–,–,–,–,–,–,–,–,–,–,–,Ki [1]: > 10 µM
COc1ccc2c3c(oc2c1)C(=O)Nc1cccc(C)[n+]1C3.[Cl-],Non-toxic,Non-toxic,Non-toxic,Non-toxic,inactive,inactive,Non-toxic,inactive,inactive,inactive,inactive,inactive,Non-toxic,Non-toxic,Non-toxic,Non-toxic,inactive,Non-toxic,inactive,Non-toxic,Activity (Mus musculus [21]): Active; Activity (Mus musculus [22]): Active
COc1ccc2c3c(oc2c1)C(=O)Nc1cc(C)cc[n+]1C3.[Cl-],Non-toxic,Non-toxic,Non-toxic,Non-toxic,inactive,inactive,Non-toxic,inactive,inactive,inactive,inactive,inactive,Non-toxic,Non-toxic,Non-toxic,Non-toxic,inactive,Non-toxic,inactive,Non-toxic,Activity (Mus musculus [24]): inactive; Activity (Mus musculus [25]): Active; Activity (Mus musculus [26]): Active

# Reference: ChEMBL document CHEMBL1157703, “Synthesis, pharmacological studies and molecular modeling of some tetracyclic 1,3-diazepinium chlorides” (Bioorg Med Chem, 2010)
